Earlier results, collected in patent US20260125514A1, “CROSSLINKED POLYMERS AND THEIR USES” (UNIVERSITÉ CÔTE D'AZUR, priority 2022, published 2026).

Conditions: free, non crosslinked caulerpenyne; Parent-Massin (1996)

SMILES: CC(=O)O/C=C(/C=C/OC(C)=O)[C@H](C/C=C(\C)C#CC=C(C)C)OC(C)=O [caulerpenyne, Caulerpenyne]
- toxicity: toxicity
